Measurements taken from article PMC11604048, “Constrained TACC3 peptidomimetics for a non-canonical protein–protein interface elucidate allosteric communication in Aurora-A kinase” (Chemical Science, 2024).
*1 amine or outer side, *2 acyl side, *3 side chain or, on linkers, in order; H or OH if unused. Where a SMILES comes first, the peptide text is derived from it. Bridges are numbered along the chain shown (N, C = ends). [ ]: non-standard residue; d: D form. The star is where a group is joined. 5FAM = O=C1OC2(c3ccc(O)cc3Oc3cc(O)ccc32)c2ccc(C(=O)*)cc21; Biphenyl(4,4'-CH2)2 = c1cc(-c2ccc(C[*:2])cc2)ccc1C[*:1]; Pro(trans-4-F) = O=C(O)[C@@H]1C[C@@H](F)CN1; Phe(4-Br) = N[C@@H](Cc1ccc(Br)cc1)C(=O)O; Phe(4-I) = N[C@@H](Cc1ccc(I)cc1)C(=O)O; Ahx = NCCCCCC(=O)O

Columns and labels:
[1] = target: T1, Aurora-A122-403-C290A/C393A (Homo sapiens, UniProt O14965, C290A/C393A); assay: FA direct binding assay (Aurora-A titrated into FAM-Ahx-labelled peptide); parameters: ΔG: unit not given here; settings: for ΔG: Table S6, from direct FA titration, n = 6
T1 construct: Human Aurora-A kinase domain 122-403 wild-type or C290A/ C393A mutant; His tag (pET30TEV vector) (N, cleaved yes); made in house; host or cells: E. coli RIL, co-expressed with lambda phosphatase (Aurora-A); tracer by solid phase synthesis
T1 sequence (O14965 122-403 C290A/C393A): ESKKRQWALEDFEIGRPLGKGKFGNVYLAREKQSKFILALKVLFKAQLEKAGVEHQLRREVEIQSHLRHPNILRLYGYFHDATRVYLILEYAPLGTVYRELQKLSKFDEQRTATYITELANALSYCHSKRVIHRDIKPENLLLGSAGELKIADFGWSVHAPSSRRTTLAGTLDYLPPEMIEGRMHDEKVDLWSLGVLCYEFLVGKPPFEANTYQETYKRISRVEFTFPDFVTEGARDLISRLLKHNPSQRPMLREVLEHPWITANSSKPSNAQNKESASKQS
Description: Fluorescence anisotropy (FA) assays – General information.
All assays were performed using 384-well plates(Greiner Bio-one, UK). […]
produced as described previously.11 All samples were prepared in 25 mM Tris,150 mM NaCl, 5 mM MgCl2, […]
(PerkinElmer; Waltham, MA, USA).The parameters were set as follows: Excitation wavelength = 480 nm […]
Measured data were processed and analysed as previously described.12 Specifically, the perpendicular intensity (P) and parallel intensity (S) were subtracted by the control values and used for calculations of intensity and anisotropy using the following Equations 1, 2, 3, 4, and 5:
I= (2PG) + S Eq. (SI − 5)
r = (S − PG) Eq. (SI − 6)
L = r − r௠௜௡ Eq. (SI − 7)
y = (k + x + [FL]) − ඥ(k + x + [FL]2 − 4 ∗ x ∗ [FL]) Eq. (SI − 8)
y = r + r௠௜௡ − r௠௔௫ Eq. (SI − 9)
Where I = total intensity; P = perpendicular intensity; S = parallel intensity; G = instrument factor; r = anisotropy; Lb = ligand bound fraction; λ = change in intensity between bound and unbound states which […]
FA direct binding assays. […]
starting from 700 μM, diluted over 24 points in a 1/2 regime using the FAM-Ahx-labeled peptides at a final fixed concentration of 50 nM per well.

[2] = target: T1, Aurora-A122-403-C290A/C393A; assay: Isothermal titration calorimetry (ITC); assay type: binding; settings: single titration
Description: Isothermal titration calorimetry (ITC). ITC experiments were carried out using a MicroCal PEAQ-ITC system (Malvern Panalytical) at 25 °C. A stock solution of Aurora-A 122-403-290A/C393A was dialyzed into ITC buffer overnight (25 mM Tris buffer, pH= 7.5; 150 mM NaCl; 5 mM MgCl2; 5 % v/v glycerol), and the same buffer was employed to resuspend a solid portion of the testing peptides. For each experiment, initially, the cell was filled with 275 µl of Aurora-A122-403-290A/C393A (46 μM) and the syringe was loaded with the corresponding peptide at 1.25 mM concentration. An initial injection of 0.5 μL was then followed by 13 injections of 3 μL, every 150 s, with a constant syringe rotation speed of 750 rpm throughout. The signal for the enthalpy of dilution of each peptide into buffer was independently measured in a control titration experiment and then subtracted from the experimental binding traces. The Kd, ΔG°, ΔH° and -TΔS° values were determined via the MicroCal PEAQ-ITC analysis software (Malvern Paranalytical) using a single-site binding model. […]

[3] = target: T1, Aurora-A122-403-C290A/C393A; assay: Competition FA assay against FAM-Ahx-TACC3 522-536 tracer; assay type: binding; settings: SD; read-out: IC50
[4] = direct FA titration of Aurora-A122-403-C290A/C393A into 50 nM FAM-Ahx-labelled peptide, 25 mM Tris, 150 mM NaCl, 5 mM MgCl2, pH 7.5, 25 °C, mean ± SD, n = 3, read-out: Kd
[5] = Table S6, direct FA titration, 50 nM fluorescein-labelled peptide, Tris buffer pH 7.5, mean ± SD, n = 6, read-out: Kd
[6] = 50 nM fluorescein-labelled peptide, mean ± SD

Row | SMILES | Kd [1, 4] [µM] | Kd [1, 5] [µM] | ΔG [1, 6] | further results
1 | CC(C)C[C@H](NC(=O)[C@@H](NC(=O)[C@H](CCC(=O)O)NC(=O)[C@H](C)NC(=O)[C@@H]1CCCN1C(=O)[C@H](CC(=O)O)NC(=O)[C@H](CCCNC(=N)N)NC(=O)[C@H](Cc1ccccc1)NC(=O)[C@H](CO)NC(=O)[C@H](CCC(=O)O)NC(=O)[C@H](CCC(=O)O)NC(=O)CCCCCNC(=O)c1ccc2c(c1)C(=O)OC21c2ccc(O)cc2Oc2cc(O)ccc21)C(C)C)C(=O)NCC(=O)N[C@H](C(=O)NCC(=O)N[C@@H](C)C(N)=O)[C@@H](C)O [FAM-Ahx-TACC3 522-536] |  |  |  | Kd ([1]; SD): 10.5 ± 1.13 µM
2 | CC(C)C[C@H](NC(=O)[C@H](Cc1ccc(O)cc1)NC(=O)[C@H](CC(=O)O)NC(=O)[C@@H](NC(=O)[C@H](CCC(=O)O)NC(=O)[C@H](C)NC(=O)CNC(=O)[C@@H](NC(=O)CNC(=O)[C@H](CC(C)C)NC(=O)[C@@H](NC(=O)[C@H](CCC(=O)O)NC(=O)[C@H](C)NC(=O)[C@@H]1CCCN1C(=O)[C@H](CC(=O)O)NC(=O)[C@H](CCCNC(=N)N)NC(=O)[C@H](Cc1ccccc1)NC(=O)[C@H](CO)NC(=O)[C@H](CCC(=O)O)NC(=O)[C@H](CCC(=O)O)NC(=O)CCCCCNC(=O)c1ccc2c(c1)C(=O)OC21c2ccc(O)cc2Oc2cc(O)ccc21)C(C)C)[C@@H](C)O)C(C)C)C(=O)N[C@@H](CCC(=O)O)C(=O)N[C@@H](CCC(N)=O)C(=O)N[C@@H](Cc1ccccc1)C(=O)NCC(=O)N[C@H](C(=O)N[C@@H](CO)C(=O)N[C@@H](CO)C(=O)N[C@@H](Cc1ccccc1)C(=O)N[C@@H](CCCCN)C(=O)N[C@@H](CCC(=O)O)C(=O)N[C@@H](CO)C(N)=O)[C@@H](C)O [FAM-Ahx-TACC3 522-552] ({5FAM-Ahx}-EESFRDPAEVLGTGAEVDYLEQFGTSSFKES-NH2) | 5.2 ± 0.5 |  |  | 
3 | CC(=O)N[C@@H](CCC(=O)O)C(=O)N[C@@H](CCC(=O)O)C(=O)N[C@@H](CO)C(=O)N[C@@H](Cc1ccccc1)C(=O)N[C@@H](CCCNC(=N)N)C(=O)N[C@@H](CC(=O)O)C(=O)N1CCC[C@H]1C(=O)N[C@@H](C)C(=O)N[C@@H](CCC(=O)O)C(=O)N[C@H](C(=O)N[C@@H](CC(C)C)C(=O)NCC(=O)N[C@H](C(=O)NCC(=O)N[C@@H](C)C(N)=O)[C@@H](C)O)C(C)C [TACC3 522-536] |  |  |  | Kd ([2]; ITC 25 °C, Aurora-A 46 µM in cell, Ac-capped peptide 1.25 mM, 25 mM Tris, 150 mM NaCl, 5 mM MgCl2, 5% v/v glycerol, pH 7.5, N restrained fit (N = 1)): 57.4 µM; Kd ([2]; ITC as E13, N unrestrained fit): 58.6 µM
4 | CC(C)C[C@H](NC(=O)[C@H](Cc1ccc(O)cc1)NC(=O)[C@H](CC(=O)O)NC(=O)[C@@H](NC(=O)[C@H](CCC(=O)O)NC(=O)[C@H](C)NC(=O)CNC(=O)[C@@H](NC(=O)CNC(=O)[C@H](CC(C)C)NC(=O)[C@@H](NC(=O)[C@H](CCC(=O)O)NC(=O)[C@H](C)NC(=O)[C@@H]1CCCN1C(=O)[C@H](CC(=O)O)NC(=O)[C@H](CCCNC(=N)N)NC(=O)[C@H](Cc1ccccc1)NC(=O)[C@H](CO)NC(=O)[C@H](CCC(=O)O)NC(=O)[C@H](CCC(=O)O)NC(=O)CCCCCNC(=O)c1ccc2c(c1)C(=O)OC21c2ccc(O)cc2Oc2cc(O)ccc21)C(C)C)[C@@H](C)O)C(C)C)C(=O)N[C@@H](CCC(=O)O)C(N)=O [FAM-Ahx-TACC3 522-542] ({5FAM-Ahx}-EESFRDPAEVLGTGAEVDYLE-NH2) | 4.5 ± 0.2 |  |  | 
5 | CC(=O)N[C@@H](CCC(=O)O)C(=O)N[C@@H](CCC(=O)O)C(=O)N[C@@H](CO)C(=O)N[C@@H](Cc1c(F)c(F)c(F)c(F)c1F)C(=O)N[C@@H](CCCNC(=N)N)C(=O)N[C@@H](CC(=O)O)C(=O)N1CCC[C@H]1C(=O)N[C@@H](C)C(=O)N[C@@H](CCC(=O)O)C(=O)N[C@H](C(=O)N[C@@H](CC(C)C)C(=O)NCC(=O)N[C@H](C(=O)NCC(=O)N[C@@H](C)C(N)=O)[C@@H](C)O)C(C)C [TACC3 522-536_5f-525F] |  |  |  | IC50 [3]: 97 ± 10 µM

Second part, led by results:

Row | Kd [1, 4] [µM] | Kd [1, 5] [µM] | ΔG [1, 6] | SMILES | further results
6 |  | 1.48 ± 0.16 | -33.3 ± 0.3 | CC(C)C[C@H](NC(=O)[C@@H](NC(=O)[C@H](CCC(=O)O)NC(=O)[C@H](C)NC(=O)[C@@H]1C[C@@H](F)CN1C(=O)[C@H](CC(=O)O)NC(=O)[C@@H]1CSCc2ccc(cc2)-c2ccc(cc2)CSC[C@H](NC(=O)[C@H](CCC(=O)O)NC(=O)[C@H](CC(C)C)NC(=O)CCCCCNC(=O)c2ccc3c(c2)C(=O)OC32c3ccc(O)cc3Oc3cc(O)ccc32)C(=O)N[C@@H](CCCCN)C(=O)N[C@@H](CCC(=O)O)C(=O)N[C@@H](CCC(=O)O)C(=O)N[C@@H](CO)C(=O)N[C@@H](Cc2ccc(Br)cc2)C(=O)N1)C(C)C)C(N)=O [FAM-Ahx-TACC3 518-532-L/R-Bph-BrF/fP] ({5FAM-Ahx}-LECKEES[Phe(4-Br)]CD[Pro(trans-4-F)]AEVL-NH2; linker 3-9 via Biphenyl(4,4'-CH2)2) | 
7 | 7.1 ± 0.8 |  |  | CC(C)C[C@H](NC(=O)[C@@H](NC(=O)[C@H](CCC(=O)O)NC(=O)[C@H](C)NC(=O)[C@@H]1CCCN1C(=O)[C@H](CC(=O)O)NC(=O)[C@H](CCCNC(=N)N)NC(=O)[C@H](Cc1ccccc1)NC(=O)[C@H](CO)NC(=O)[C@H](CCC(=O)O)NC(=O)[C@H](CCC(=O)O)NC(=O)CCCCCNC(=O)c1ccc2c(c1)C(=O)OC21c2ccc(O)cc2Oc2cc(O)ccc21)C(C)C)C(N)=O [FAM-Ahx-TACC3 522-532] ({5FAM-Ahx}-EESFRDPAEVL-NH2) | 
8 | 0.8 ± 0.2 | 0.9 ± 0.2 | -34.6 ± 0.6 | CC(C)C[C@H](NC(=O)[C@@H](NC(=O)[C@@H]1CSCc2ccc(cc2)-c2ccc(cc2)CSC[C@H](NC(=O)[C@H](CCC(=O)O)NC(=O)[C@H](CCC(=O)O)NC(=O)[C@H](CCCCN)NC(=O)[C@H](CC(C)C)NC(=O)[C@H](CCC(=O)O)NC(=O)[C@H](CC(C)C)NC(=O)CCCCCNC(=O)c2ccc3c(c2)C(=O)OC32c3ccc(O)cc3Oc3cc(O)ccc32)C(=O)N[C@@H](Cc2ccc(I)cc2)C(=O)N[C@@H](CCCNC(=N)N)C(=O)N[C@@H](CC(=O)O)C(=O)N2C[C@H](F)C[C@H]2C(=O)N[C@@H](C)C(=O)N1)C(C)C)C(N)=O [FAM-Ahx-TACC3 518-532-S/E-Bph-IF/fP] ({5FAM-Ahx}-LELKEEC[Phe(4-I)]RD[Pro(trans-4-F)]ACVL-NH2; linker 7-13 via Biphenyl(4,4'-CH2)2) | 
9 |  | 0.62 ± 0.15 | -35.5 ± 0.6 | CC(C)C[C@H](NC(=O)[C@@H](NC(=O)[C@@H]1CSCc2ccc(cc2)-c2ccc(cc2)CSC[C@H](NC(=O)[C@H](CCC(=O)O)NC(=O)[C@H](CCC(=O)O)NC(=O)[C@H](CCCCN)NC(=O)[C@H](CC(C)C)NC(=O)[C@H](CCC(=O)O)NC(=O)[C@H](CC(C)C)NC(=O)CCCCCNC(=O)c2ccc3c(c2)C(=O)OC32c3ccc(O)cc3Oc3cc(O)ccc32)C(=O)N[C@@H](Cc2ccc(Br)cc2)C(=O)N[C@@H](CCCNC(=N)N)C(=O)N[C@@H](CC(=O)O)C(=O)N2C[C@H](F)C[C@H]2C(=O)N[C@@H](C)C(=O)N1)C(C)C)C(N)=O [FAM-Ahx-TACC3 518-532-S/E-Bph-BrF/fP] ({5FAM-Ahx}-LELKEEC[Phe(4-Br)]RD[Pro(trans-4-F)]ACVL-NH2; linker 7-13 via Biphenyl(4,4'-CH2)2) | 
